The values that follow come from paper PMC5693111, “Small molecule Photoregulin3 prevents retinal degeneration in the Rho^P23H mouse model of retinitis pigmentosa” (eLife, 2017).

The assay addresses T1, NR2E3 (Homo sapiens, UniProt Q9Y5X4).
T1 construct: aa 90–410 (expressed as His8-MBP-TEV fusion, tag removed)
In words: isothermal titration calorimetry ([…] PR3 injected into […] NR2E3; one site model, qualitative). Format: binding. A general note: ITC needs no label: the signal is the heat of the interaction.

T1 sequence (Q9Y5X4 90-410): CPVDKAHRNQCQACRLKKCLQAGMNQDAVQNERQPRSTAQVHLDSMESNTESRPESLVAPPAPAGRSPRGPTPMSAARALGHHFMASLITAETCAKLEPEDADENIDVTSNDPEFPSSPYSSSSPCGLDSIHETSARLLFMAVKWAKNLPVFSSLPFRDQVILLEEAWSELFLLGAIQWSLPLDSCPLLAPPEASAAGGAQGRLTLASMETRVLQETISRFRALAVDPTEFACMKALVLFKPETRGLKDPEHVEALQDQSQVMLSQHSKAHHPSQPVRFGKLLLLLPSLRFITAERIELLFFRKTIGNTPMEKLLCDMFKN

As a reminder, the Kd is the equilibrium constant for the complex coming apart. Higher therefore signals lower affinity. `COc1cc2nc(CN3CC=C(c4ccccc4)CC3)nc(O)c2cc1OC` [PR3, Photoregulin3] returned a Kd of approximately 67 µM.
